Measured values published in patent US20260356824A1, “COMPOUNDS FOR TREATING FIBROTIC DISEASES” (Meta-Immue Inc., priority 2023, published 2026).

Assays:
hLPAR1 = molecular target: T1, hLPAR1 (Homo sapiens, UniProt Q92633); assay: Ca2+ Flux Assay (B103 cells stably expressing hLPAR1); type: cell-based; settings: LPA-induced calcium release, Fura-2 AM, compound 20 min at RT
T1 construct: expressed in transfected cells
Protocol: B103 cells stably expressing hLPAR1 were seeded at a density of 1.0×10^5 cells per well in clear flat-bottom black 96-well plates and incubated overnight in complete media. The following day, the cells were pre-incubated in serum-free media for 2 hours prior to ensure cellular equilibration. For the loading a calcium-sensitive fluorescent dye, the cells were treated with a concentration of 5 μM Fura-2 AM dye (Sigma, F1225) in Hank's buffered salt solution (HBSS) supplemented with 20 mM HEPES, […], and 0.3% fatty-acid-free bovine serum albumin for 40 minutes at room temperature (RT). Test compounds, prepared in DMSO, were then added to each well and incubated for 20 minutes at RT. To induce calcium release, a concentration of […] in HBSS supplemented with 20 mM HEPES, and 0.3% fatty-acid-free bovine serum albumin was introduced. Intracellular calcium mobilization was subsequently quantified by monitoring the fluorescence intensity using the Spark® multimode microplate reader (TECAN).

A2058 cells = assay: Chemotaxis Assay (LPA-induced migration of A2058 cells); type: cell-based; settings: Homo sapiens, 4 to 8 hours, crystal violet 590 nm
Protocol: For monitoring the migration of cells, Neuroprobe ChemoTx® System plates ([…], 5.7 mm diameter sites; Gaithersburg, MD, USA) were utilized. To induce cell migrations, a concentration of […] or vehicle in DMEM were loaded to the bottom chamber. A total of 15,000 A2058 cells, which were starved for 24 hr following treated with test compounds or vehicle, were then applied to the upper membrane coated with 0.001% fibronectin. The plate was incubated for 4 to 8 hours to allow cell migration. Following incubation, the plate was dissembled, and the migrated cells were visualized by crystal violet staining. The stained area with crystal violet was quantified by measuring the absorbance at 590 nm and the relative percentage of the control was calculated.

T1 sequence (Q92633 whole entry): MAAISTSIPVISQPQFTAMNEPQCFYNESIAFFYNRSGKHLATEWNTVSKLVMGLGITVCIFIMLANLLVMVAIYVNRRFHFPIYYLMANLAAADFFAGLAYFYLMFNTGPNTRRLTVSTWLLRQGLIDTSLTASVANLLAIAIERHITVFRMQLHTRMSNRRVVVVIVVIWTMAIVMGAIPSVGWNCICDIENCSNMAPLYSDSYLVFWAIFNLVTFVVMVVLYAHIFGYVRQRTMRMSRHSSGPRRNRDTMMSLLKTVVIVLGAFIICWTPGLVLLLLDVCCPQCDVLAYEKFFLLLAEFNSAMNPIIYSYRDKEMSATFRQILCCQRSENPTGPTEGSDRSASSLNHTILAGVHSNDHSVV

Structure (SMILES)	IC50 (hLPAR1) [nM]	IC50 (A2058 cells) [nM]
CO[C@@H](C(=O)Nc1c(C)noc1C1CCN(c2ccc(C3(C(=O)O)CC3)cc2)CC1)c1ccccc1 [Compound 47]	200 to 3000	500 to 5000
Cc1nnn(C2CCN(c3ccc(C4(C(=O)O)CC4)cc3)CC2)c1NC(=O)O[C@H](C)c1ccccc1 [Compound 53]	< 10	500 to 5000
COc1cc(C2(C(=O)O)CC2)ccc1N1CCC(c2nnn(C)c2NC(=O)O[C@H](C)c2ccccc2)CC1 [Compound 4]	< 10	500 to 5000
COC(=O)C(C)(C)S(=O)(=O)NC(=O)C1(c2ccc(N3CCC(c4onc(C)c4NC(=O)O[C@H](C)c4ccccc4)CC3)cc2)CC1 [Compound 69, methyl 2-methyl-2-[[1-[4-[4-[3-methyl-4-[[(1R)-1-phenylethoxy]carbonylamino]isoxazol-5-yl]-1-piperidyl]phenyl]cyclopropanecarbonyl]sulfamoyl]propanoate]	< 10	< 100
Cc1ncnc(C2CCN(c3ccc(C4(C(=O)O)CC4)cc3)CC2)c1NC(=O)O[C@H](C)c1ccccc1 [Compound 29]	200 to 3000	500 to 5000
C[C@@H](OC(=O)Nc1cccnc1C1CCN(c2ccc(C3(C(=O)O)CC3)cc2)CC1)c1ccccc1 [Compound 28]	10 to 200	500 to 5000
C[C@@H](OC(=O)Nc1c(C2CCN(c3ccc(C4(C(=O)NS(=O)(=O)C5(C(=O)O)CC5)CC4)cc3)CC2)nnn1C)c1ccccc1 [Compound 57, 1-[[1-[4-[4-[1-methyl-5-[[(1R)-1-phenylethoxy]carbonylamino]triazol-4-yl]-1-piperidyl]phenyl]cyclopropanecarbonyl]sulfamoyl]cyclopropanecarboxylic acid]	< 10	< 100
Cc1noc(C2CCN(c3ccc(C4(C(=O)OCc5oc(=O)oc5C)CC4)cc3)CC2)c1NC(=O)O[C@H](C)c1ccccc1 [Compound 14]	< 10	< 100
Cc1cc(NC(=O)O[C@H](C)c2ccccc2)c(C2CCN(c3ccc(C4(C(=O)O)CC4)cc3)CC2)s1 [Compound 91]	≥ 3000	100 to 500
Cc1nnn(C2CCN(c3ccc(C4(C(=O)O)CC4)cc3)CC2)c1NC(=O)O[C@H](C)c1ccccc1Cl [Compound 51]	< 10	500 to 5000
Cc1ccccc1[C@@H](C)OC(=O)Nc1c(C2CCN(c3ccc(C4(C(=O)O)CC4)cc3)CC2)cnn1C [Compound 34]	10 to 200	< 100
Cc1noc(C2CCN(c3ccc(C4(S(=O)(=O)O)CC4)cc3)CC2)c1NC(=O)O[C@H](C)c1ccccc1 [Compound 89, 1-[4-[4-[3-methyl-4-[[(1R)-1-phenylethoxy]carbonylamino]isoxazol-5-yl]-1-piperidyl]phenyl]cyclopropanesulfonic acid]	< 10	100 to 500
Cc1noc(C2CCN(c3ccc(C4(C(=O)NS(=O)(=O)C5(C(=O)O)CC5)CC4)cc3)CC2)c1NC(=O)O[C@H](C)c1ccccc1 [Compound 75]	< 10	< 100
Cc1noc(C2CCN(c3ccc(C4(C(=O)O)CC4)cc3)CC2)c1NC(=O)[C@H](O)c1ccccc1 [Compound 32]	200 to 3000	≥ 5000
Cc1nsc(C2CCN(c3ccc(C4(C(=O)O)CC4)cc3)CC2)c1NC(=O)O[C@H](C)c1ccccc1Cl [Compound 42]	10 to 200	< 100
Cc1noc(C2CC3(C2)CN(c2ccc(C4(C(=O)NS(=O)(=O)CCC(=O)O)CC4)cc2)C3)c1NC(=O)O[C@H](C)c1ccccc1 [Compound 50]	< 10	< 100
Cc1noc(C2CCN(c3ccc(C4(C(=O)NS(=O)(=O)C5(CO)CC5)CC4)cc3)CC2)c1NC(=O)O[C@H](C)c1ccccc1 [Compound 77]	< 10	< 100
COc1ccccc1[C@@H](C)OC(=O)N(C)c1c(C)nsc1C1CCN(c2ccc(C3(C(=O)O)CC3)cc2)CC1 [Compound 44]	10 to 200	100 to 500
Cc1noc(C2CCN(c3ccc(C4(C(=O)NS(C)(=O)=O)CC4)cc3)CC2)c1NC(=O)O[C@H](C)c1ccccc1Cl [Compound 11]	10 to 200	100 to 500

Structure (SMILES)	IC50 (hLPAR1) [nM]	IC50 (A2058 cells) [nM]
Cc1noc(C2CCN(c3ccc(C4(C(=O)O)CC4)cc3)CC2)c1NC(=O)OC1C2C[C@H]3C[C@@H](C2)C[C@@H]1C3 (some centres unmarked) [Compound 97]	200 to 3000	500 to 5000
Cc1nnn(C2CCN(c3ccc(C4(C(=O)NS(=O)(=O)C(F)(F)F)CC4)cc3)CC2)c1NC(=O)O[C@H](C)c1ccccc1 [Compound 15]	200 to 3000	500 to 5000
COc1cc(C2(C(=O)NS(=O)(=O)CCC(=O)O)CC2)ccc1N1CCC(c2onc(C)c2NC(=O)O[C@H](C)c2ccccc2)CC1 [Compound 1, 3-[[1-[3-methoxy-4-[4-[3-methyl-4-[[(1R)-1-phenylethoxy]carbonylamino]isoxazol-5-yl]-1-piperidyl]phenyl]cyclopropanecarbonyl]sulfamoyl]propanoic acid]	< 10	< 100
COc1cc(C2(CNS(=O)(=O)CCC(=O)O)CC2)ccc1N1CCC(c2nnn(C)c2NC(=O)O[C@H](C)c2ccccc2)CC1 [Compound 3]	< 10	≥ 5000
C=CCS(=O)(=O)NC(=O)C1(c2ccc(N3CCC(c4onc(C)c4NC(=O)O[C@H](C)c4ccccc4)CC3)cc2)CC1 [Compound 2, (1R)-1-phenylethyl N-{3-methyl-5-[1-(4-{1-[(prop-2-ene-1-sulfonyl)carbamoyl]cyclopropyl}phenyl)piperidin-4-yl]-1,2-oxazol-4-yl}carbamate]	< 10	< 100
COc1c(C)cc(NC(=O)O[C@H](C)c2ccccc2)c(C2CCN(c3ccc(C4(C(=O)O)CC4)cc3)CC2)c1C [Compound 18]	200 to 3000	500 to 5000
C[C@@H](OC(=O)Nc1c(C2CCN(c3ccc(C4(C(=O)NS(=O)(=O)C5(C(=O)O)CC5)CC4)cc3)CC2)nnn1C)c1ccccc1Cl [Compound 39, 1-[[1-[4-[4-[5-[[(1R)-1-(2-chlorophenyl)ethoxy]carbonylamino]-1-methyl-triazol-4-yl]-1-piperidyl]phenyl]cyclopropanecarbonyl]sulfamoyl]cyclopropanecarboxylic acid]	< 10	< 100
Cc1noc(C2CCN(c3ccc(C4(c5nnn[nH]5)CC4)cc3)CC2)c1NC(=O)O[C@H](C)c1ccccc1 [Compound 88, [(1R)-1-phenylethyl]N-[3-methyl-5-[1-[4-[1-(1H-tetrazol-5-yl)cyclopropyl]phenyl]-4-piperidyl]isoxazol-4-yl]carbamate]	< 10	< 100
Cc1noc(C2CCN(c3ccc(C4(C(=O)O)CC4)cc3)CC2)c1Nc1cccc(-c2ccccc2)n1 [Compound 49]	10 to 200	500 to 5000
Cc1noc(C2CCN(c3ccc(C4(C(=O)O)CC4)cc3)CC2)c1NC(=O)OC(C)C1CCCCC1 (centres unmarked) [Compound 96]	10 to 200	500 to 5000
Cc1noc(C2CCN(c3ccc(C4(C(=O)O)CC4)cc3)CC2)c1NC(=O)O[C@H](C)c1ccccc1C(C)(C)F [Compound 30]	10 to 200	500 to 5000
Cc1noc(C2CC3(C2)CN(c2ccc(C4(C(=O)NS(=O)(=O)CC(=O)O)CC4)cc2)C3)c1NC(=O)O[C@H](C)c1ccccc1 [Compound 48]	10 to 200	< 100
Cc1noc(C2CC3(C2)CN(c2ccc(C4(C(=O)NS(=O)(=O)CCCO)CC4)cc2)C3)c1NC(=O)O[C@H](C)c1ccccc1 [Compound 52]	< 10	< 100
Cc1noc(C2CCN(c3ccc(C4(C(=O)NS(=O)(=O)CC5(C)COC5)CC4)cc3)CC2)c1NC(=O)O[C@@H](C)c1ccccc1 [Compound 81]	< 10	< 100
Cc1noc(C2CCN(c3ccc(C4(C(=O)O)CC4)cc3)CC2)c1NC(=O)OCC1CC1 [Compound 5]	10 to 200	500 to 5000
Cc1noc(C2CCN(c3ccc(C4(C(=O)NS(=O)(=O)C5(C(N)=O)CC5)CC4)cc3)CC2)c1NC(=O)O[C@H](C)c1ccccc1 [Compound 73, (1R)-1-phenylethyl N-(5-{1-[4-(1-{[(1-carbamoylcyclopropyl)sulfonyl]carbamoyl}cyclopropyl)phenyl]piperidin-4-yl}-3-methyl-1,2-oxazol-4-yl)carbamate]	< 10	< 100
C[C@@H](OC(=O)Nc1c(C2CCN(c3ccc(C4(C(=O)O)CC4)cc3)CC2)nnn1C)c1ccccc1Cl [Compound 27, 1-(4-{4-[5-({[(1R)-1-(2-chlorophenyl)ethoxy]carbonyl}amino)-1-methyl-1H-1,2,3-triazol-4-yl]piperidin-1-yl}phenyl)cyclopropane-1-carboxylic acid]	< 10	< 100
Cc1ccccc1[C@@H](C)OC(=O)Nc1c(C)nsc1C1CCN(c2ccc(C3(C(=O)O)CC3)cc2)CC1 [Compound 36]	< 10	< 100
